Measured values: paper PMC7339578, “Multiple circulating alkaloids and saponins from intravenous Kang-Ai injection inhibit human cytochrome P450 and UDP-glucuronosyltransferase isozymes: potential drug–drug interactions” (Chinese Medicine, 2020)
“And” between values parts separate entries of the source, which are not always exact repeats. Equal entries are not always repeated. Where two headings read alike, the source gives them in different places.

Experiments:
[1] = Plasma pharmacokinetics in rats after a 30-min intravenous infusion of Kang-Ai injection; assay type: in vivo, Sprague–Dawley rats; conditions: for clearance: read-out: CLtot, p (converted)
Experimental: Specific pathogen free (SPF) grade male Sprague–Dawley rats (250 ± 20) g were provided by the Experimental Animal Center of Zhengzhou University (Zhengzhou, China). These rats were kept in a designated animal room at constant temperature (22 ± 2) °C and humidity (50 ± 20) % with 12 h of light/dark per day and free access to water and food. All protocols of animal experiments were approved in accordance with the Regulations of Experimental Animal Administration issued by the Ethics Review Committee for Animal Experimentation of Jinan University (Ethical Review NO. 20190301010). Prior to the experiments, the rats were fasted for 12 h but with free access to water. After study use, the rats were euthanized with CO2 gas.
The rats in this study all received a single 30-min intravenous infusion of Kang-Ai injection via the tail veins using TYD01-02 infusion pumps (Lead Fluid, Baoding, China). The dose was derived from the label daily dose of Kang-Ai injection (60 mL/person, once daily) according to dose normalization by body surface area. For plasma pharmacokinetic studies, the rats were randomly received a single intravenous 30 min-bolus dose at 6 mL/kg. Blood samples (100 μL) were collected from the rats’ external jugular veins into heparinized polypropylene tubes at 5, 15, 30, 45 min, and 1, 1.5, 2, 3, 4, 6, 8, 12 h. After gently shaking for 10 s, the blood samples were centrifuged at 13000 g for 10 min to yield plasma samples, which were kept frozen at − 80 °C until analysis.
(§1) Pharmacokinetic parameters were estimated by non-compartmental analysis using WinNonlin 6.3 software (Pharsight, NC, US). Data are presented as the mean ± SD (n = 3). The area under the concentration–time curve up to the last measured point in time (AUC0-t) was calculated using the trapezoidal rule. The total plasma clearance (CLtot, p) was calculated by dividing the compound dose by the AUC0-∞, and the distribution volume at steady state (VSS) was estimated by multiplying the CLtot, p by the mean residence time (MRT). The renal excretory clearance (CLR) and hepatobiliary (CLB) was determined by dividing the cumulative amount excreted into urine (Cum.Ae-U) and bile (Cum.Ae-B) by the plasma AUC0-∞, respectively. The fractions of dose excreted into urine (fe-U) and the fractions of dose excreted into bile (fe-B) were established using the relationship Cum.Ae-U/Dose and Cum.Ae-B/Dose, respectively. Mean differences between treatment and control groups were analyzed by two-tailed unpaired Student’s t test by Graphpad Prism V5 software (SanDiego, CA). The level of significance was set at p < 0.05 (∗), p < 0.01 (∗∗) or p < 0.001 (∗∗∗).

[2] = Urinary (renal) excretion in rats after a 30-min infusion of Kang-Ai injection; assay type: in vivo, Sprague–Dawley rats
Experimental: (§2) For urine sampling, the rats were housed singly in metabolic cages. And then, the urine samples were collected at 0–4, 4–8 and 8–12 h after starting infusion and were weighed. Likewise, bile samples were also collected at 0–3, 3–6, 6–9 and 9–12 h after starting infusion and were weighed. The urine and bile collection tubes were all frozen at − 80 °C.
as §1

[3] = Biliary (hepatobiliary) excretion in rats after a 30-min infusion of Kang-Ai injection; assay type: in vivo, Sprague–Dawley rats
Experimental: as §2, §1

[4] = Protein binding assay (equilibrium dialysis); assay type: in vitro ADME, rat
Experimental: Binding of circulating alkaloids and saponins to rat plasma was measured by equilibrium dialysis using Spectra/Por 2 dialysis membranes (molecular weight cutoff, 12–14 kDa; Rancho Dominguez, CA, USA) as described. After equilibrating for 24 h at 55 rpm and 37 °C, the dialysate and the plasma were sampled for analysis. […] The concentrations of tested matrine, oxysophocarpine and oxymatrine were 2 μmol/L, while those of astragaloside IV, III, and ginsenosides Rh1, Rg2, Rg1, Rf, Re, Rd, Rc, Rb1, Rb2, notoginsenosides R1, R2, were 4 μmol/L. The unbound fraction (fu-plasma) in rat plasma was calculated as follow: fu-plasma = Cd/Cp × 100%, where the Cd and Cp values were the concentrations of each analyte in the dialysate sample and in the post-dialysis plasma sample, respectively.

[5] = Stability tests of analytes in rat plasma QC samples; assay type: in vitro ADME; conditions: rat plasma
Experimental: […] The dilution integrity was investigated by analyzing six replicate samples with each analyte, and each analyte were diluted 10-fold with blank rat matrix. Furthermore, the diluted samples were analyzed using freshly prepared calibration curve to calculate RE and RSD, which should be no more than ± 15% as criterion.

[6] = rat urine 0–12 h, Kang-Ai injection 6 mL/kg iv
[7] = rat bile 0–12 h, Kang-Ai injection 6 mL/kg iv

SMILES	fe-U,0–12h (fraction of dose excreted into urine) [2, 6]	fe-B,0–12h (fraction of dose excreted into bile) [3, 7]	At -80 °C for 48 h, Mean±SD ([5]; nominal conc. 20 nM)	At -80 °C for 48 h, RE ([5]; nominal conc. 20 nM)	Extracted samples at 8 °C for 18 h, Mean±SD ([5]; nominal conc. 20 nM)	Extracted samples at 8 °C for 18 h, RE ([5]; nominal conc. 20 nM)	Short-term stability at room temperature for 6 h, Mean±SD ([5]; nominal conc. 20 nM)	Short-term stability at room temperature for 6 h, RE ([5]; nominal conc. 20 nM)	Three freeze-thaw cycles (-80 °C ↔ 23 °C), Mean±SD ([5]; nominal conc. 20 nM)	Three freeze-thaw cycles (-80 °C ↔ 23 °C), RE ([5]; nominal conc. 20 nM)	At -80 °C for 48 h, Mean±SD ([5]; nominal conc. 100 nM)	At -80 °C for 48 h, RE ([5]; nominal conc. 100 nM)	Extracted samples at 8 °C for 18 h, Mean±SD ([5]; nominal conc. 100 nM)	Extracted samples at 8 °C for 18 h, RE ([5]; nominal conc. 100 nM)	Short-term stability at room temperature for 6 h, Mean±SD ([5]; nominal conc. 100 nM)	Short-term stability at room temperature for 6 h, RE ([5]; nominal conc. 100 nM)	Three freeze-thaw cycles (-80 °C ↔ 23 °C), Mean±SD ([5]; nominal conc. 100 nM)	Three freeze-thaw cycles (-80 °C ↔ 23 °C), RE ([5]; nominal conc. 100 nM)	At -80 °C for 48 h, Mean±SD ([5]; nominal conc. 400 nM)	At -80 °C for 48 h, RE ([5]; nominal conc. 400 nM)	other results
O=C1C=CC[C@@H]2[C@H]3CCC[N+]4([O-])CCC[C@@H](CN12)[C@@H]34 (some centres unmarked) [Compound A2, Oxysophocarpine]	38.60% and 38.60 ± 11.22%	51.92% and 51.92 ± 8.98%	21.90 ± 0.32 nM	10.73%	22.58 ± 0.11 nM	13.22%	20.94 ± 1.33 nM	12.22%	22.63 ± 0.15 nM	13.81%	112.64 ± 0.85 nM	13.54%	108.59 ± 6.59 nM	14.25%	103.12 ± 8.16 nM	12.17%	103.40 ± 9.41 nM	12.06%	437.15 ± 14.08 nM	11.61%	Cmax ([1]; male, Sprague-Dawley, in vivo, rat plasma, 30-min iv infusion of Kang-Ai injection 6 mL/kg, read-out: Cmax): 170 ± 27.4 nM; half-life ([1]; male, Sprague-Dawley, in vivo, rat plasma, 30-min iv infusion of Kang-Ai injection 6 mL/kg, read-out: t1/2 (converted)): 1.78 ± 1.55 h; clearance ([1]; male, Sprague-Dawley, in vivo, rat, 30-min iv infusion of Kang-Ai injection 6 mL/kg, Table 1 unit): 0.205 mL/min; Vd ([1]; male, Sprague-Dawley, in vivo, rat, 30-min iv infusion of Kang-Ai injection 6 mL/kg, Table 1 unit, read-out: VSS): 0.0252 ± 0.0148 L; clearance ([1]; male, Sprague-Dawley, in vivo, rat, Kang-Ai injection 6 mL/kg iv): 0.205 mL/min/kg; Vd ([1]; male, Sprague-Dawley, in vivo, rat, Kang-Ai injection 6 mL/kg iv, read-out: VSS (Vd)): 0.0252 L/kg; CL renal ([2]; male, Sprague-Dawley, in vivo, rat, Kang-Ai injection 6 mL/kg iv, read-out: CLR (renal excretory clearance) (converted)): 0.0792 mL/min; fraction of dose excreted unchanged via renal plus hepatobiliary excretion (sum of fe-U and fe-B) ([2]; rat urine + bile, 0–12 h, Kang-Ai injection 6 mL/kg iv): exceeded 90%; fraction unbound at 24 h ([4]; rat plasma, equilibrium dialysis 24 h, 37 °C, 2 μmol/L alkaloids, 4 μmol/L saponins, read-out: fu-plasma (unbound fraction)): 0.912 ± 0.0495; Extracted samples at 8 °C for 18 h, Mean±SD ([5]; nominal conc. 400 nM): 432.22 ± 7.29 nM; Extracted samples at 8 °C for 18 h, RE ([5]; nominal conc. 400 nM): 9.98%; Short-term stability at room temperature for 6 h, Mean±SD ([5]; nominal conc. 400 nM): 439.31 ± 14.14 nM; Short-term stability at room temperature for 6 h, RE ([5]; nominal conc. 400 nM): 12.94%; Three freeze-thaw cycles (-80 °C ↔ 23 °C), Mean±SD ([5]; nominal conc. 400 nM): 418.53 ± 37.48 nM; Three freeze-thaw cycles (-80 °C ↔ 23 °C), RE ([5]; nominal conc. 400 nM): 14.91%
CC(C)=CCC[C@](C)(O[C@@H]1O[C@H](CO)[C@@H](O)[C@H](O)[C@H]1O)[C@H]1CC[C@]2(C)[C@@H]1[C@H](O)C[C@@H]1[C@@]3(C)CC[C@H](O)C(C)(C)[C@@H]3[C@@H](O[C@@H]3O[C@H](CO)[C@@H](O)[C@H](O)[C@H]3O[C@@H]3OC[C@@H](O)[C@H](O)[C@H]3O)C[C@]12C [Compound C8, Notoginsenoside R1]	72.12 ± 13.01%	12.00 ± 1.57%	20.74 ± 0.96 nM	8.27%	19.67 ± 2.39 nM	-11.85%	17.74 ± 0.16 nM	-12.08%	21.51 ± 1.68 nM	12.79%	98.21 ± 9.98 nM	9.58%	97.66 ± 12.82 nM	12.46%	92.24 ± 4.21 nM	-10.97%	97.29 ± 6.47 nM	-10.11%	413.01 ± 31.69 nM	11.76%	t1/2 ([1]; rat plasma, 30-min iv infusion of Kang-Ai injection 6 mL/kg): 0.75 ± 0.16 h; Cmax ([1]; rat plasma, 30-min iv infusion of Kang-Ai injection 6 mL/kg, read-out: Cmax): 121 ± 21.1 nM; fu-plasma (unbound fraction) ([4]; rat plasma, equilibrium dialysis 24 h, 37 °C, 2 μmol/L alkaloids, 4 μmol/L saponins): 90.36 ± 4.22%; Extracted samples at 8 °C for 18 h, Mean±SD ([5]; nominal conc. 400 nM): 402.54 ± 33.33 nM; Extracted samples at 8 °C for 18 h, RE ([5]; nominal conc. 400 nM): 9.82%; Short-term stability at room temperature for 6 h, Mean±SD ([5]; nominal conc. 400 nM): 357.29 ± 9.94 nM; Short-term stability at room temperature for 6 h, RE ([5]; nominal conc. 400 nM): -13.09%; Three freeze-thaw cycles (-80 °C ↔ 23 °C), Mean±SD ([5]; nominal conc. 400 nM): 379.04 ± 38.85 nM; Three freeze-thaw cycles (-80 °C ↔ 23 °C), RE ([5]; nominal conc. 400 nM): -14.53%
CC(C)=CCC[C@](C)(O)[C@H]1CC[C@]2(C)[C@@H]1[C@H](O)C[C@@H]1[C@@]3(C)CC[C@H](O)C(C)(C)[C@@H]3[C@@H](O[C@@H]3O[C@H](CO)[C@@H](O)[C@H](O)[C@H]3O[C@@H]3OC[C@@H](O)[C@H](O)[C@H]3O)C[C@]12C [Compound C3, Notoginsenoside R2]	–	–	–	–	–	–	–	–	–	–	–	–	–	–	–	–	–	–	–	–	AUC0–12h ([1]; rat, in vivo, iv): 0.08557 ± 0.01054 µM·h; CLtot, p ([1]; rat, in vivo, iv): 255.80 ± 34.97 mL/h; Cmax ([1]; rat, in vivo, iv): 128 ± 13.3 nM; VSS ([1]; rat, in vivo, iv): 99.30 ± 20.42 mL; t1/2 ([1]; rat, in vivo, iv): 0.29 ± 0.12 h; CLR (renal excretory clearance) ([2]; rat, in vivo, iv): 25.62 ± 3.48 mL/h; fe-U,0–12h (fraction of dose excreted into urine) ([2]; rat, in vivo, iv): 10.27 ± 2.49%; CLB (hepatobiliary clearance) ([3]; rat, in vivo, iv): 59.94 ± 6.71 mL/h; fe-B,0–12h (fraction of dose excreted into bile) ([3]; rat, in vivo, iv): 23.55 ± 1.97%; fu-plasma (unbound fraction) ([4]; rat, plasma): 35.24 ± 2.85%
